Data: the supplement of paper PMC10307832

Experiments:
Assay in all cases: relative viability (nuclei count vs DMSO), 5 days (fraction); higher = more cells survive
BEN = test system: BEN
Method in brief: (§1)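 For relative viability, nuclei counts in treated wells were divided by those in vehicle wells. Lung cancer cell lines had been pin-tool dosed in 1536-well plates the day after seeding and cultured for 5 days, then fixed and stained in one step (final 0.05% Triton X-100, 1% formaldehyde, 1 ug/ml Hoechst) and imaged at 4×. Doses were one drug alone or a fixed anchor-drug dose plus five library-drug doses (not always all listed) in √10 steps, and values are duplicate-plate medians.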

EKVX = test system: EKVX
Method in brief: as §1

HARA = test system: HARA
Method in brief: as §1

HCC-366 = test system: HCC-366
Method in brief: as §1

HCC-827 = test system: HCC-827
Method in brief: as §1

LC-2-ad = test system: LC-2-ad
Method in brief: as §1

LOU-NH91 = test system: LOU-NH91
Method in brief: as §1

NCI-H1355 = test system: NCI-H1355
Method in brief: as §1

NCI-H1395 = test system: NCI-H1395
Method in brief: as §1

NCI-H1437 = test system: NCI-H1437
Method in brief: as §1

NCI-H1734 = test system: NCI-H1734
Method in brief: as §1

NCI-H1792 = conditions: first compound 0.08 µM
Method in brief: as §1

Work on `C=C1C(=O)O[C@@H](CCCCCCCC)[C@@H]1C(=O)O` [C-75] + Cc1nc(NC(=O)N2CCC[C@H]2C(N)=O)sc1-c1ccnc(C(C)(C)C(F)(F)F)c1 [Alpelisib] (partner 2 µM) yielded a relative viability (BEN; first compound 0.08 µM) of 0.983, a relative viability (BEN; first compound 0.253 µM) of 1.15 and a relative viability (BEN; first compound 0.8 µM) of 0.953. The relative viability (BEN; first compound 2.53 µM) was 0.926, the relative viability (BEN; first compound 8 µM) was 0.91 and the relative viability (EKVX; first compound 0.08 µM) was 0.885. For the same compound, the relative viability (EKVX; first compound 0.253 µM) was 0.863, the relative viability (EKVX; first compound 0.8 µM) was 0.913 and the relative viability (EKVX; first compound 2.53 µM) was 0.583. For the same compound, the relative viability (EKVX; first compound 8 µM) was 0.969, the relative viability (HARA; first compound 0.08 µM) was 0.849 and the relative viability (HARA; first compound 0.253 µM) was 1. For the same compound, the relative viability (HARA; first compound 0.8 µM) was 0.767, the relative viability (HARA; first compound 8 µM) was 0.883 and the relative viability (HCC-366; first compound 0.08 µM) was 0.502. The relative viability (HCC-366; first compound 0.253 µM) was 0.48, the relative viability (HCC-366; first compound 0.8 µM) was 0.381 and the relative viability (HCC-366; first compound 8 µM) was 0.404. For the same compound, the relative viability (HCC-827; first compound 0.08 µM) was 0.936, the relative viability (HCC-827; first compound 0.253 µM) was 0.97 and the relative viability (HCC-827; first compound 0.8 µM) was 0.953. The relative viability (HCC-827; first compound 2.53 µM) was 1.01, the relative viability (HCC-827; first compound 8 µM) was 0.987 and the relative viability (LC-2-ad; first compound 0.08 µM) was 0.838. The relative viability (LC-2-ad; first compound 0.253 µM) was 0.822, the relative viability (LC-2-ad; first compound 0.8 µM) was 0.828 and the relative viability (LC-2-ad; first compound 8 µM) was 0.891. It also gave a relative viability (LOU-NH91; first compound 0.08 µM) of 0.771, a relative viability (LOU-NH91; first compound 0.253 µM) of 0.643 and a relative viability (LOU-NH91; first compound 0.8 µM) of 0.719. It also gave a relative viability (LOU-NH91; first compound 2.53 µM) of 0.744, a relative viability (LOU-NH91; first compound 8 µM) of 0.723 and a relative viability (NCI-H1355; first compound 0.08 µM) of 0.815. The relative viability (NCI-H1355; first compound 0.253 µM) was 0.825, the relative viability (NCI-H1355; first compound 0.8 µM) was 0.825 and the relative viability (NCI-H1355; first compound 2.53 µM) was 0.835. For the same compound, the relative viability (NCI-H1355; first compound 8 µM) was 0.886, the relative viability (NCI-H1395; first compound 0.08 µM) was 1.05 and the relative viability (NCI-H1395; first compound 0.253 µM) was 1.13. It also gave a relative viability (NCI-H1395; first compound 0.8 µM) of 1.07, a relative viability (NCI-H1395; first compound 2.53 µM) of 0.868 and a relative viability (NCI-H1395; first compound 8 µM) of 1.28. It also gave a relative viability (NCI-H1437; first compound 0.08 µM) of 0.942, a relative viability (NCI-H1437; first compound 0.253 µM) of 0.969 and a relative viability (NCI-H1437; first compound 0.8 µM) of 1.01. The relative viability (NCI-H1437; first compound 2.53 µM) was 0.961, the relative viability (NCI-H1437; first compound 8 µM) was 1.07 and the relative viability (NCI-H1734; first compound 0.08 µM) was 0.691. The relative viability (NCI-H1734; first compound 0.253 µM) was 0.609, the relative viability (NCI-H1734; first compound 0.8 µM) was 0.69 and the relative viability (NCI-H1734; first compound 2.53 µM) was 0.447. The relative viability (NCI-H1734; first compound 8 µM) was 0.631 and the relative viability (NCI-H1792) was 0.67.
